The text below walks through data of US8946234B2, “Halogen-substituted compounds” (Bayer CropScience AG, priority 2008, dated 2015).

One data set can be described thus: physchem. The format is physicochemical.
Conditions: not given
A digest of the protocol:
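Following EEC Directive 79/831 Annex V.A8, logP is obtained from retention on a 1.8 micron C18 column (50×4.6 mm) at 55 °C and 2.0 ml/min. Elution ran 10→95% acetonitrile (0.1% formic acid) against water (0.09% formic acid) in 4.25 min, held 1.25 min; mass detection used.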
On to `C=CCNC(=O)c1cc(NC(=O)c2c(C(F)(F)F)c(C(F)(F)C(F)(F)F)nn2C)ccc1Cl` [Ik-93], for which the logP is listed as 3.44^a).
As for `Cn1nc(C(F)(F)C(F)(F)F)c(C(F)(F)F)c1C(=O)Nc1cc(Br)cc(C(=O)NC2CC2)c1` [Ik-221], the logP is reported as 3.74^a).
The same measure, in the same setting: with `Cc1nc(C(F)(F)C(F)(F)F)nc(C)c1C(=O)Nc1ccc(Cl)c(C(=O)NCC=CCl)c1` [Ib-13] the figure was 3.26^a); with `Cn1nc(OCC(F)(F)F)c(I)c1C(=O)Nc1ccc(Cl)c(C(=O)NCC(F)(F)F)c1` [Ik-244], 3.24^a).
Still for that read-out and setting: under `Cn1nc(C(F)(F)F)c(Br)c1C(=O)Nc1ccc(Cl)c(C(=O)NC2CC2F)c1` (stereo not drawn) [Ik-159] stands 2.82^a); under `CSc1c(Br)cc(NC(=O)c2c(C(F)(F)F)c(C(F)(F)C(F)(F)F)nn2C)cc1C(=O)NC1CC1` [Ik-198], 3.87^a); under `Cn1nc(C(F)(F)C(F)(F)F)cc1C(=O)Nc1ccc(Cl)c(C(=O)NC2CC2)c1` [Ik-17], 2.94^a).
In the case of `Cc1nc(C(F)(F)C(F)(F)F)nc(C)c1C(=O)Nc1ccc(Cl)c(C(=O)NCc2ccccc2)c1` [Ib-14], the logP was 3.49^a).
Take `Cn1nc(C(F)(F)C(F)(F)F)c(C(F)(F)F)c1C(=O)Nc1cc(F)c(I)c(C(=O)NCc2ccccc2)c1` [Ik-227]: the logP is given as 4.20^a).
The same measure, in the same setting: with `O=C(NCC(F)(F)F)c1cc(NC(=O)c2nccc(C(F)(F)F)c2Cl)ccc1Cl` [Ie-3] the figure was 2.88^a); with `Cn1nc(C(F)(F)C(F)(F)F)c(C(F)(F)F)c1C(=O)Nc1cc(Br)cc(C(=O)NCc2ccccc2)c1` [Ik-222], 4.35^a); with `Cc1nc(C(F)(F)C(F)(F)F)nc(C)c1C(=O)Nc1ccc(Cl)c(C(=O)NCC(F)(F)F)c1` [Ib-12], 3.22^a).
On the same count and under the same terms, with `CNC(=O)c1cc(NC(=O)c2c(C(F)(F)F)c(C(F)(F)C(F)(F)F)nn2C)ccc1Cl` [Ik-85] the figure was 3.04^a); with `Cn1nc(C(F)(F)C(F)(F)F)c(C(F)(F)F)c1C(=O)Nc1cccc(C(=O)NCc2ccccc2)c1` [Ik-14], 3.77^a).
Still for that read-out and setting: with `O=C(NC1CC1)c1cc(NC(=O)c2cnc(C(F)(F)C(F)(F)C(F)(F)F)nc2C(F)(F)F)ccc1Cl` [Ib-15] the figure was 3.56^a); with `COc1ccc(NC(=O)c2c(C(F)(F)F)c(C(F)(F)C(F)(F)F)nn2C)cc1C(=O)NC1CC1` [Ik-185], 3.32^a).
In the case of `Cn1nc(C(F)(F)C(F)(F)F)c(C(F)(F)F)c1C(=O)Nc1cc(F)c(F)c(C(=O)NCc2ccccc2)c1` [Ik-97], the logP is reported as 4.19^a).
As for `O=C(NCc1ccccc1)c1cc(NC(=O)c2cnc(C(F)(F)C(F)(F)F)nc2C(F)F)ccc1Cl` [Ib-29], the logP is recorded as 3.51^a).
Turning to `CN(C(=O)c1c(C(F)(F)F)c(C(F)(F)C(F)(F)F)nn1C)c1ccc(Cl)c(C(=O)NCC(F)(F)F)c1` [Ik-133], the logP is given as 3.66^a).
`Cn1nc(OC(F)F)c(Cl)c1C(=O)Nc1ccc(Cl)c(C(=O)NCC(F)(F)F)c1` [Ik-239]: the logP was 2.89^a).
Same read-out and setting: under `O=C(NCC=CCl)c1cc(NC(=O)c2ccc(C(F)(F)F)nc2Cl)ccc1Cl` [Ir-10] stands 2.86^a); under `Cn1nc(C(F)(F)C(F)(F)C(F)(F)C(F)(F)F)cc1C(=O)Nc1ccc(Cl)c(C(=O)NC2CC2)c1` [Ik-266], 3.74^a).
Still for that read-out and setting: with `O=C(NCC=CCl)c1cc(NC(=O)c2cnc(C(F)(F)C(F)(F)F)nc2C(F)(F)F)ccc1Cl` [Ib-10] the figure was 3.59^a).
The same measure, in the same setting: under `Cn1nc(C(F)(F)F)cc1C(=O)Nc1ccc(Cl)c(C(=O)NC2CC2)c1` [Ik-71] stands 2.48^a); under `Cn1nc(C(F)(F)F)c(Cl)c1C(=O)Nc1ccc(Cl)c(C(=O)NCC=CCl)c1` [Ik-19], 3.22^a).
For `Cn1nc(C(F)(F)C(F)(F)F)c(C(F)(F)F)c1C(=O)Nc1ccc(Br)c(C(=O)NCC(F)(F)F)c1` [Ik-173], the logP is on record as 3.77^a).
Consider `Cn1nc(C(F)(F)C(F)(F)F)c(C(F)(F)F)c1C(=O)Nc1ccc(Br)c(C(=O)NCc2ccccc2)c1` [Ik-172], for which the logP is recorded as 4.03^a).
Regarding `Cn1nc(OC(F)F)c(Br)c1C(=O)Nc1ccc(Cl)c(C(=O)NCC(F)(F)F)c1` [Ik-236], the logP is 2.88^a).
In the case of `Cn1nc(OCC(F)(F)F)cc1C(=O)Nc1ccc(Cl)c(C(=O)NC2CC2)c1` [Ik-247], the logP is 2.55^a).
As for `CC(NC(=O)c1cc(NC(=O)c2c(Cl)c(C(F)(F)F)nn2C)ccc1Cl)C(F)(F)F` (stereo not drawn) [Ik-152], the logP is 3.44^a).
Same read-out and setting: with `O=C(NC1CC1)c1cc(NC(=O)c2cnc(C(F)(F)C(F)(F)F)nc2C(F)(F)F)ccc1Cl` [Ib-7] the figure was 3.20^a).
Still for that read-out and setting: with `Cn1nc(OC(F)F)c(I)c1C(=O)Nc1ccc(Cl)c(C(=O)NC2CC2)c1` [Ik-240] the figure was 2.54^a).
On the same count and under the same terms, under `Cn1nc(C(F)(F)C(F)(F)F)c(C(F)(F)F)c1C(=O)Nc1cc(C(=O)NC2CC2)c(Cl)cc1Cl` [Ik-147] stands 3.61^a).

Still in this data set, the particulars now being: HPLC method a), eluent acetonitrile/water with formic acid; read-out: logP.
Take `Cn1ccc(C(F)(F)C(F)(F)C(F)(F)F)n1` [1-Methyl-3-heptafluoropropyl-1H-pyrazole]: the chromatographic logP was determined as 2.84.

The data set is the same for the next values; noted with them: HPLC phase inversion (reversed-phase) C18 column, HPLC method a), eluent acetonitrile/water with formic acid; read-out: logP.
For `COC(=O)c1cc(NC(=O)c2c(C(F)(F)F)c(C(F)(F)C(F)(F)F)nn2C)cnc1Cl` [methyl 2-chloro-5-({[1-methyl-3-(pentafluoroethyl)-4-(trifluoromethyl)-1H-pyrazol-5-yl]carbonyl}amino)nicotinate], the chromatographic logP turned out to be 3.7.
Still for that read-out and setting: under `Cn1nc(C(F)(F)F)c(C(F)(F)F)c1C(=O)Nc1ccc(Cl)c(C(=O)NCC(F)(F)F)c1` [Ik-125, N-{4-Chloro-3-[(2,2,2-trifluoroethyl)carbamoyl]-phenyl}-1-methyl-3,4-bis(trifluoromethyl)-1H-pyrazole-5-carboxamide] stands 3.25; under `Cn1nc(C(F)(F)C(F)(F)F)cc1C(=O)O` [1-Methyl-3-pentafluoroethyl-1H-pyrazole-5-carboxylic acid], 2.08; under `Cn1nc(C(F)(F)C(F)(F)F)c(C(F)(F)F)c1C(=O)Nc1ccc(Br)c(C(=O)N[C@@H]2C[C@@H]2F)n1` [Ik-127, N-{3-Bromo[2-(1R,2S)-2-fluorocycloprop-1-ylcarbamoyl]pyrid-6-yl}-1-methyl-3-(pentafluoroethyl)-4-(trifluoromethyl)-1H-pyrazole-5-carboxamide], 3.29.
Same read-out and setting: with `Cn1nc(C(F)(F)C(F)(F)F)c(C(F)(F)F)c1C(=O)Nc1ccc(Cl)c(C(=O)O)c1` [Ik-2, 2-Chloro-5-({[1-methyl-3-(pentafluoroethyl)-4-(trifluoromethyl)-1H-pyrazol-5-yl]carbonyl}amino)benzoic acid] the figure was 3.22; with `Cn1nc(C(F)(F)C(F)(F)F)c(C(F)(F)F)c1C(=O)Nc1cnc(Cl)c(C(=O)O)c1` [Ik-131, 2-Chloro-5-({[1-methyl-3-(pentafluoroethyl)-4-(trifluoromethyl)-1H-pyrazol-5-yl]carbonyl}amino)nicotinic acid], 2.27; with `COC(=O)c1[nH]nc(C(F)(F)C(F)(F)F)c1C(F)(F)F` [Methyl 3-(pentafluoroethyl)-4-(trifluoromethyl)-1H-pyrazole-5-carboxylate], 3.02.

Still in this data set, the particulars now being: HPLC phase inversion (reversed-phase) C18 column, HPLC on C18 phase inversion column, method a); read-out: logP.
In the case of `Cn1nc(C(F)(F)F)c(C(F)(F)F)c1C(=O)Nc1ccc(Cl)c(C(=O)NCC(F)(F)F)c1` [Ik-125, N-{4-Chloro-3-[(2,2,2-trifluoroethyl)carbamoyl]-phenyl}-1-methyl-3,4-bis(trifluoromethyl)-1H-pyrazole-5-carboxamide], the chromatographic logP worked out at 3.25.
Still for that read-out and setting: under `Cn1nc(C(F)(F)C(F)(F)F)c(C(F)(F)F)c1C(=O)Nc1ccc(Br)c(C(=O)N[C@@H]2C[C@@H]2F)n1` [Ik-127, N-{3-Bromo[2-(1R,2S)-2-fluorocycloprop-1-ylcarbamoyl]pyrid-6-yl}-1-methyl-3-(pentafluoroethyl)-4-(trifluoromethyl)-1H-pyrazole-5-carboxamide] stands 3.29; under `Cn1nc(C(F)(F)C(F)(F)F)c(C(F)(F)F)c1C(=O)Nc1cnc(Cl)c(C(=O)O)c1` [Ik-131, 2-Chloro-5-({[1-methyl-3-(pentafluoroethyl)-4-(trifluoromethyl)-1H-pyrazol-5-yl]carbonyl}amino)nicotinic acid], 2.77.

Staying with this data set, now noted: HPLC phase inversion (reversed-phase) C18 column, HPLC, method a); read-out: logP.
As to `Cn1nc(C(F)(F)C(F)(F)F)c(C(F)(F)F)c1C(=O)Nc1ccc(Cl)c(C(=O)O)c1` [Ik-2, 2-Chloro-5-({[1-methyl-3-(pentafluoroethyl)-4-(trifluoromethyl)-1H-pyrazol-5-yl]carbonyl}amino)benzoic acid], the chromatographic logP turned out to be 3.22.
